Data reported in ChEMBL document CHEMBL1143417, “Roles of P-glycoprotein, Bcrp, and Mrp2 in biliary excretion of spiramycin in mice” (Antimicrob Agents Chemother, 2007).

Assays:
[1] = Drug excretion in Bcrp gene knockout C57BL/6 mouse assessed as drug recovery in bile at 1 uM administered through single-pass liver perfusion for 15 mins relative to total liver drug content at the end of infusion; format: ADME, tissue-based; details: in vivo, 0.25 h
[2] = Drug level in Bcrp gene knockout C57BL/6 mouse bile at 1 uM administered through single-pass liver perfusion for 15 mins coinfused with Pgp and Bcrp inhibitor GW918; format: ADME, tissue-based; details: in vivo, 0.25 h
Mus musculus [3] = experiment: Drug excretion in Bcrp gene knockout C57BL/6 mouse assessed as drug recovery in outflow perfusate and bile at 1 uM administered through single-pass liver perfusion for 15 mins; format: ADME, organism-based; details: in vivo, 0.25 h
Mus musculus [4] = experiment: Drug excretion in Mrp2 gene knockout C57BL/6 mouse assessed as drug recovery in outflow perfusate at 1 uM administered through single-pass liver perfusion for 15 mins relative to total liver drug content at the end of infusion; format: ADME, organism-based; details: in vivo, 0.25 h
Mus musculus [5] = experiment: Drug excretion in C57BL/6 mouse assessed as drug recovery in outflow perfusate and bile at 1 uM administered through single-pass liver perfusion for 15 mins; format: ADME, organism-based; details: in vivo, other, 0.25 h
[6] = Drug level in C57BL/6 mouse bile at 1 uM administered through single-pass liver perfusion for 15 mins; format: ADME, tissue-based; details: in vivo, 0.25 h
[7] = Drug level in C57BL/6 mouse bile at 1 uM administered through single-pass liver perfusion for 15 mins coinfused with Pgp and Bcrp inhibitor GW918; format: ADME, tissue-based; details: in vivo, 0.25 h
Mus musculus [8] = experiment: Drug excretion in Mrp2 gene knockout C57BL/6 mouse assessed as drug recovery in outflow perfusate and bile at 1 uM administered through single-pass liver perfusion for 15 mins; format: ADME, organism-based; details: in vivo, 0.25 h
Mus musculus [9] = experiment: Drug excretion in C57BL/6 mouse assessed as drug recovery in outflow perfusate at 1 uM administered through single-pass liver perfusion for 15 mins relative to total liver drug content at the end of infusion; format: ADME, organism-based; details: in vivo, 0.25 h
[10] = Drug level in Mrp2 gene knockout C57BL/6 mouse bile at 1 uM administered through single-pass liver perfusion for 15 mins; format: ADME, tissue-based; details: in vivo, 0.25 h
Mus musculus [11] = experiment: Hepatic uptake clearance in Bcrp gene knockout C57BL/6 mouse at 1 uM administered through single-pass liver perfusion for 15 mins; format: ADME, organism-based; details: in vivo, 0.25 h
Mus musculus [12] = experiment: Hepatic uptake clearance in C57BL/6 mouse at 1 uM administered through single-pass liver perfusion for 15 mins coinfused with Pgp and Bcrp inhibitor GW918; format: ADME, organism-based; details: in vivo, 0.25 h
[13] = Drug excretion in C57BL/6 mouse assessed as drug recovery in bile at 1 uM administered through single-pass liver perfusion for 15 mins coinfused with Pgp and Bcrp inhibitor GW918 relative to total liver drug content at the end of infusion; format: ADME, tissue-based; parameters: scale not given: the % may be the effect or the level left; details: in vivo, 0.25 h
Mus musculus [14] = experiment: Drug excretion in Bcrp gene knockout C57BL/6 mouse assessed as drug recovery in outflow perfusate at 1 uM administered through single-pass liver perfusion for 15 mins relative to total liver drug content at the end of infusion; format: ADME, organism-based; details: in vivo, 0.25 h
[15] = Drug level in Bcrp gene knockout C57BL/6 mouse bile at 1 uM administered through single-pass liver perfusion for 15 mins; format: ADME, tissue-based; details: in vivo, 0.25 h
Mus musculus [16] = experiment: Drug excretion in Mrp2 gene knockout C57BL/6 mouse assessed as drug recovery in outflow perfusate at 1 uM administered through single-pass liver perfusion for 15 mins coinfused with Pgp and Bcrp inhibitor GW918 relative to total liver drug content at the end of infusion; format: ADME, organism-based; parameters: scale not given: the % may be the effect or the level left; details: in vivo, 0.25 h
[17] = Drug excretion in Mrp2 gene knockout C57BL/6 mouse assessed as drug recovery in bile at 1 uM administered through single-pass liver perfusion for 15 mins relative to total liver drug content at the end of infusion; format: ADME, tissue-based; details: in vivo, 0.25 h
[18] = Drug level in Mrp2 gene knockout C57BL/6 mouse bile at 1 uM administered through single-pass liver perfusion for 15 mins coinfused with Pgp and Bcrp inhibitor GW918; format: ADME, tissue-based; details: in vivo, 0.25 h
Mus musculus [19] = experiment: Drug excretion in Bcrp gene knockout C57BL/6 mouse assessed as drug recovery in outflow perfusate at 1 uM administered through single-pass liver perfusion for 15 mins coinfused with Pgp and Bcrp inhibitor GW918 relative to total liver drug content at the end of infusion; format: ADME, organism-based; parameters: scale not given: the % may be the effect or the level left; details: in vivo, 0.25 h
Mus musculus [20] = experiment: Hepatic uptake clearance in Mrp2 gene knockout C57BL/6 mouse at 1 uM administered through single-pass liver perfusion for 15 mins; format: ADME, organism-based; details: in vivo, 0.25 h
Mus musculus [21] = experiment: Hepatic uptake clearance in Bcrp gene knockout C57BL/6 mouse at 1 uM administered through single-pass liver perfusion for 15 mins coinfused with Pgp and Bcrp inhibitor GW918; format: ADME, organism-based; details: in vivo, 0.25 h
[22] = Drug excretion in Mrp2 gene knockout C57BL/6 mouse assessed as drug recovery in bile at 1 uM administered through single-pass liver perfusion for 15 mins coinfused with Pgp and Bcrp inhibitor GW918 relative to total liver drug content at the end of infusion; format: ADME, tissue-based; parameters: scale not given: the % may be the effect or the level left; details: in vivo, 0.25 h
Mus musculus [23] = experiment: Hepatic uptake clearance in Mrp2 gene knockout C57BL/6 mouse at 1 uM administered through single-pass liver perfusion for 15 mins coinfused with Pgp and Bcrp inhibitor GW918; format: ADME, organism-based; details: in vivo, 0.25 h
Mus musculus [24] = experiment: Hepatic uptake clearance in C57BL/6 mouse at 1 uM administered through single-pass liver perfusion for 15 mins; format: ADME, organism-based; details: in vivo, 0.25 h
Mus musculus [25] = experiment: Drug excretion in C57BL/6 mouse assessed as drug recovery in outflow perfusate at 1 uM administered through single-pass liver perfusion for 15 mins coinfused with Pgp and Bcrp inhibitor GW918 relative to total liver drug content at the end of infusion; format: ADME, organism-based; parameters: scale not given: the % may be the effect or the level left; details: in vivo, 0.25 h
[26] = Drug excretion in C57BL/6 mouse assessed as drug recovery in bile at 1 uM administered through single-pass liver perfusion for 15 mins relative to total liver drug content at the end of infusion; format: ADME, tissue-based; details: in vivo, 0.25 h
[27] = Drug excretion in Bcrp gene knockout C57BL/6 mouse assessed as drug recovery in bile at 1 uM administered through single-pass liver perfusion for 15 mins coinfused with Pgp and Bcrp inhibitor GW918 relative to total liver drug content at the end of infusion; format: ADME, tissue-based; parameters: scale not given: the % may be the effect or the level left; details: in vivo, 0.25 h

Which results are given for SPIRAMYCIN?
Activity [1]: 14.1%; Drug uptake [2]: 14 µg/mL; Activity (Mus musculus [3]): 86.5 %ID; Activity (Mus musculus [4]): 29.5%; Activity (Mus musculus [5]): 90.5 %ID; Drug uptake [6]: 8.65 µg/mL; Drug uptake [7]: 7.82 µg/mL; Activity (Mus musculus [8]): 82.4 %ID; Activity (Mus musculus [9]): 32.5%; Drug uptake [10]: 3.45 µg/mL; CLup (Mus musculus [11]): 4.55 mL/min; CLup (Mus musculus [12]): 4.64 mL/min; Activity [13]: 4.36%; Activity (Mus musculus [14]): 28.1%; Drug uptake [15]: 19.1 µg/mL; Activity (Mus musculus [16]): 24%; Activity [17]: 1.21%; Drug uptake [18]: 1.77 µg/mL; Activity (Mus musculus [19]): 25.2%; CLup (Mus musculus [20]): 5.15 mL/min; CLup (Mus musculus [21]): 5.03 mL/min; Activity [22]: 0.58%; CLup (Mus musculus [23]): 4.7 mL/min; CLup (Mus musculus [24]): 4.63 mL/min; Activity (Mus musculus [25]): 34.1%; Activity [26]: 9.15%; Activity [27]: 8.28%
